We go through 1 compound from US20200281949A1, “METHODS FOR TREATING CASTRATION-RESISTANT AND CASTRATION-SENSITIVE PROSTATE CANCER” (TOLERO PHARMACEUTICALS, INC., priority 2018, published 2020).

The subject of series [1] is PC-3 prostate tumor xenograft. In words: Tumor growth in PC-3 mouse xenograft model. The class given is in vivo. To be noted: oral gavage 1.25 mg/kg BID x 21 days, or 7.5 or 15 mg/kg q7d x 3. As for the experimental part:
The effects of the compound of structure (I) on tumor growth in the PC-3 mouse xenograft model were also assessed. PC-3 prostate tumor cells were maintained in vitro as a monolayer culture in Ham's F12K medium supplemented with 10% fetal bovine serum at 37° C. in an atmosphere of 5% CO2 in air. The cells in an exponential growth phase were harvested and counted for tumor inoculation. Each mouse was inoculated subcutaneously at the right flank region with PC-3 prostate tumor cells (5×10^6 cells) in 0.1 ml of PBS for tumor development. When the mean tumor size reached approximately 100 mm^3, the mice were randomized and divided into study groups. Compound of structure (I) was administered at 1.25 mg/kg twice daily (BID) for 21 days, or 7.5 mg/kg or 15 mg/kg once weekly (q7d×3) by oral gavage. Tumor volumes were measured twice weekly in two dimensions using a caliper, and the volume expressed in mm^3 using the formula: V=(L×W×W)/2, where V is tumor volume, L is tumor length (the longest tumor dimension) and W is tumor width (the longest tumor dimension perpendicular to L).

A short description of series [2]: Phase I dose-escalation study in patients with advanced solid tumors: plasma PK. Format: in vivo, human. The note with it: any timepoint. The procedure: Plasma PK parameters of compound of structure (I) and alvocidib were evaluated in Cohorts 1-5 at specific timepoints during the study. Blood was collected from patients in Cohorts 1-5 according to the pharmacokinetic sampling schedule described in Table 9.
PK parameters were estimated using standard noncompartmental methods. Actual sample collection times were used rather than scheduled collection times. Plasma concentrations below the limit of quantification were treated as 0. Imbedded missing plasma concentrations (e.g., missing values between two observed values) were estimated using linear […]. This is consistent with using the trapezoidal rule to calculate AUC. Other missing plasma concentrations were excluded from calculations to estimate PK parameters.

The nature of series [3]: Phase I dose-escalation study in patients with advanced solid tumors: safety. Format: in vivo, human. The source says: Patients with advanced metastatic or progressive solid tumors who were refractory to, or intolerant of, established therapy known to provide clinical benefit for their condition were enrolled. Cohorts of 3-6 patients each received escalating doses of compound of structure (I) using a modified Fibonacci dose escalation approach. Once the optimal dose has been established, additional patients may be enrolled to confirm safety and to explore efficacy. Twenty additional patients will be enrolled in an expansion cohort at the maximum tolerated dose (MTD).
This is an ongoing Phase 1, open-label, dose-escalation, safety, PK and PD study. The proposed starting dose and schedule for oral compound of structure (I) was a 1-mg flat dose once daily (QD) for 14 days followed by a 7-day drug-free recovery period (each cycle=21 days). In the absence of dose-limiting toxicities (DLTs) in the first cohort of at least 3 patients, the dose was increased using a modified Fibonacci dose escalation scheme, and BID dosing commenced according to the dose escalation schedule described in Table 8. The first patient in cohort 6 has been enrolled at 8 mg compound of structure (I) BID. The baseline demographics of the first 14 patients enrolled in the study are described in Table 6.
DLT was defined as any one of the following events observed in cycle 1, regardless of investigator attribution, unless there was a clear alternative explanation: • 1. Grade 3 or greater febrile neutropenia • 2. Grade 4 neutropenia for ≥7 consecutive days • 3. Grade 4 thrombocytopenia or Grade 3 thrombocytopenia with clinically significant bleeding or that requires a platelet transfusion • 4. Grade 3 or 4 nonhematologic AEs will be considered dose limiting, regardless of duration aside from the specific parameters described herein • 5. Grade 4 nausea, vomiting, or diarrhea, regardless of duration • 6. Dosing delays≥1 week due to treatment-emergent adverse events (TEAEs) or related severe laboratory test values • 7. Any AST and ALT elevation>3× ULN (if baseline value was normal) or ≥3× the baseline value (if baseline value was abnormal) accompanied by serum bilirubin levels>2×ULN • 8. […] Any Grade≥3 elevations in creatinine • 10. Any Grade 5 toxicity

The test system of series [4] is subcutaneous 22Rv1 human prostate cancer xenograft. The series is described as follows: Efficacy study in the 22Rv1 xenograft prostate cancer model. The class given is in vivo, male BALB/c nude mice. The note with it: castrated mice, 21 days; doses per Table 1: Cmpd Str (I) 1.25 mg/kg p.o. BID or 10 mg/kg p.o. Q7D; enzalutamide 30 mg/kg p.o. QD; docetaxel 10 mg/kg i.p. Q7D; ABT199 100 mg/kg p.o. QD. As for the experimental part: The objective of this study was to evaluate the in vivo therapeutic efficacy of the compound of structure (I) or a pharmaceutically acceptable salt or zwitterionic form thereof in the treatment of a subcutaneous 22Rv1 human prostate cancer xenograft model. For the 22Rv1 model, efficacy of the compound of structure (I) was evaluated in male BALB/c nude mice. Cobalt-60 irradiation of all mice was performed 2 days before the tumor inoculation at 2 Gy (1 Gy=100 rads). Each mouse was inoculated at the right flank with 1×10^7 tumor cells in 0.1 ml of PBS mixed with matrigel (1:1). The date of tumor cell inoculation was denoted as day 0.
Castration was performed when mean tumor volume reached approximately 200 mm^3. Mice were anesthetized with ketamine/xylazine; surgical castration was performed via a midline scrotal incision allowing bilateral access to the hemiscrotal contents; after exposing each testicle, a 6-0 Vicryl suture was used to ligate the spermatic cord and then remove the testicle; the scrota and skin was then closed with 6-0 Vicryl suture, separately. Treatments started when the mean tumor volume re-grew to approximately 100 mm^3.
After tumors reached the appropriate size, approximately 100-200 mm^3, mice were randomized into treatment groups 1-11, which are shown in Table 1. Each treatment was administered starting on day 15, at a dosing volume of 5 μL/g and continued for 21 days (or 22 days for groups with treatment at Q7D). For groups with treatment at Q7D×3 weeks, dosing was performed on days 1, 8, and 15 post-randomization, and the study was terminated on day 22 post randomization. The combined treatment intervals were each 0 h, and the interval for BID was 8 h. Randomization was performed based on the “Matched distribution” method (StudyDirector™ software, version 3.1.399.19) randomized block design.
Tumor volumes were measured twice per week after randomization in two dimensions using a caliper, and the volume was expressed in mm^3 using the formula: “V=(L×W×W)/2,” where V is tumor volume, L is tumor length (the longest tumor dimension) and W is tumor width (the longest tumor dimension perpendicular to L). The average tumor volume for each group, as a percentage of the average tumor volume of the control group (group 1), is shown in FIG. 6. […] The percentage shown in FIG. 7 (% T/C) is calculated as mean(T)/mean(C)*100%, with “T” representing tumor volume and “C” representing tumor volume for group 1.
T and C are the mean tumor volume (or weight) of the treated groups and control group (group 1), respectively, on a given day. The percentages shown in FIG. 10 are calculated as % ΔT/C=(mean(T)−mean(T0))/(mean(C)−mean(C0))*100%, with “0” indicating the initial timepoint.

[5] abbreviates: patients, oral, Cohorts 1-5 (1 mg QD to 6 mg BID), to date.

`CN1CC[C@H](c2c(OP(=O)(O)O)cc(O)c3c(=O)cc(-c4ccccc4Cl)oc23)[C@H](O)C1` [compound of structure (I)]: the “tumor growth in PC-3 mouse xenograft model” value in series [1] was “inhibited tumor growth”. The “detection of compound of structure (I) in plasma” value in series [2] (Cohort 2, 1 mg BID oral, any sample) is recorded as “no compound of structure (I) was detected”. For the same compound, in series [2] (across cohorts (FIGS. 24G, 24H), oral Formulation No. 401-01), the “detectable compound of structure (I) in plasma” value is “no detectable compound of structure (I)”. In series [3] (number of patients (%), N = 14), the “Treatment-emergent adverse events, Grade 3: Anemia” value was 1 (7%); the “Treatment-emergent adverse events, Grade 3: Chest Pain” value is reported as 1 (7%); the “Treatment-emergent adverse events, Grade 3: Haematuria” value is on record as 1 (7%); the “Treatment-emergent adverse events, Grade 3: Hypotension” value was 1 (7%). Also, in series [3] (number of patients (%), N = 14), the “Treatment-emergent adverse events, Grade 3: Hypoxia” value is listed as 1 (7%); the “Treatment-emergent adverse events, Grade 3: Malignant Pleural Effusion” value is recorded as 1 (7%); the “Treatment-emergent adverse events, Grade 3: Pain” value was 1 (7%); the “Treatment-emergent adverse events, Grade 3: Swelling” value was 1 (7%). Moreover, in series [3] (setting [5]), the “dose-limiting diarrhea or neutropenia” value is reported as “no evidence of dose-limiting diarrhea or neutropenia” and the unexplained toxicity result is listed as “no unexplained toxicity”. For the same compound, the “anti-cancer activity in the 22Rv1 xenograft model (tumor growth)” value in series [4] is on record as “modest activity”.
